Several values for one entry are separate records, joined by “and”; a condition that tells them apart may be missing. Equal values may be shown once. Read-outs that look alike come from different tables or passages of the source. Peptide text beside a SMILES is read from it.
How the values were obtained:
[1] = test system: defibrinated sheep blood (red blood cells); experiment: Hemolysis assay; format: cell-based; settings: 200 µg/mL compound, 20 h incubation at 37 °C with defibrinated sheep blood, PBS 0.002% Tween20, absorbance 415 nm, relative to 0.1% Triton X-100; n=3 technical replicates
Protocol: Defibrinated sheep blood (Thermo Fisher Scientific) and a phosphate-buffered saline (PBS) buffer containing 0.002% Tween20 were used in this assay. The red blood cells were washed with buffer followed by centrifugation (400 g for 15 min at 4 °C). The red blood cells were then normalized to obtain a positive control read-out around 2.5 at 415 nm to stay in the linear range with the maximum sensitivity. A serial dilution of the compounds (200–1.56 µg/mL, 75 µL) was prepared in a 96-well plate. Each plate contained a positive control (0.1% Triton X-100 final concentration, 75 µL) and the negative control (buffer, 75 µL). After addition of normalized blood cells (75 µL), the plates were incubated for 20 h at 37 °C at 500 rpm. The plates were centrifuged (800× g for 5 min at room temperature). For the next step flat-bottom polystyrene plates were prepared with 100 µL buffer in each well. Aliquots of 25 µL supernatant from the centrifuged plates were then transferred to their respective wells in the flat-bottom plate. Absorbance values where measured at 415 nm and corrected for background (negative control) and transformed to a percentage hemolysis relative to the positive control.

E. coli BW25113 [2] = experiment: Checkerboard assay with erythromycin; format: cell-based, Escherichia coli; settings: for MSCery: erythromycin concentration in the combination with the synergist giving the lowest FICi, E. coli BW25113; for MIC of the peptide (MICpep): synergist alone, from checkerboard with erythromycin; for MIC of the peptide (MICpep) / MSCpeptide, minimum synergistic concentration: 20 h 37 °C; for MSCpeptide, minimum synergistic concentration: synergist concentration in the combination with erythromycin giving the lowest FICi, OD600; for FICi: with erythromycin vs E. coli BW25113, synergy defined as FICi ≤ 0.5
Protocol: (§1) All peptides were screened for antimicrobial activity against E. coli BW25113, E. coli ATCC25922, and E. coli W3110. A select group of the peptides was further tested against E. coli mcr-1, E. coli EQASmcr-1 (EQAS 2016 412016126), E. coli EQASmcr-2 (EQAS 2016 KP37), E. coli EQASmcr-3 (EQAS 2017 2013-SQ352), K. pneumoniae ATCC13883, P. aeruginosa ATCC27853, and A. baumannii ATCC17978. The antimicrobial assay was performed according to CLSI guidelines. Bacteria were plated out directly from their glycerol stocks on blood agar plates, incubated overnight at 37 °C, and then kept in the fridge. The blood agar plates were only used for 2 weeks and then replaced.
(§2) One colony from a blood agar plates was inoculated in Lysogeny Broth (LB) at 37 °C until a 0.5 optical density at 600 nm (OD600) was reached (compared to the sterility control of LB). The bacterial suspension was diluted in fresh LB to 2.0 × 10^6 CFU/mL. The serial dilutions were prepared in polypropylene microtiter plates: a stock of the test compounds was prepared with a 2x final concentration in LB. Moreover, 100 µL of the stock was added to the wells of the top row of which 50 µL was used for the serial dilution. The bottom row of each plate was used as the positive (50 µL of LB) and negative controls (100 µL of LB) (6 wells each). Furthermore, 50 µL of the 2.0 × 10^6 CFU/mL bacterial stock was added to each well except for the negative controls, adding up to a total volume of 100 µL per well. The plates were sealed with a breathable seal and incubated for 20 h at 37 °C and 600 rpm.
(§3) Two 96-well plates were required per compound. A serial dilution of the compound was performed on two plates from row A–G using with LB as medium. Row H was filled with 25 µL medium. On a separate plate a negative control (8 wells, 100 μL medium) was prepared. For all concentrations of antibiotic a specific stock was prepared. 25 µL medium was added to the 0 µg/mL antibiotic columns (plate I, column 1–3). Of each antibiotic stock 25 µL was added to three columns to obtain triplicates for every condition. Both plates contained 50 µL in each well to which 50 µL bacterial stock was added (see the protocol of the MIC assays) and the plates were sealed. After incubation for 20 h at 37 °C while shaking, the breathable seals were removed and the density of the bacterial suspensions measured at 600 nm (OD600) using a Tecan Spark plate reader. The OD600 values were transformed to a 2D gradient with the negative control as minimum and the positive control (wells G1, G2, and G3) as maximum in excel. The FICi was calculated using Equation (1) with a FICi ≤ 0.5 indicating synergy. FICi = (MSCa/MICa) + (MSCb/MICb),(1)
(§4) Calculation of the FICi: MSCa = concentration of the […] in combination with the antibiotic that results in the lowest FICi. MICa = MIC of the antibiotic without synergist (row G). MSCb = concentration of the synergist in combination with the antibiotic that results in the lowest FICi. MICb = MIC of the synergist itself (Column 1–3, plate I).

E. coli BW25113 [3] = format: cell-based, Escherichia coli; settings: for MSCrif: rifampicin concentration in the combination giving the lowest FICi; for MSCrif / MSCpep: E. coli BW25113; for MICpep: synergist alone, E. coli BW25113, from checkerboard with rifampicin; for MSCpep: synergist concentration in the combination with rifampicin giving the lowest FICi
Protocol: as §1, §2, §3, §4

E. coli BW25113 [4] = experiment: microbe, parasite or virus in culture; format: cell-based, Escherichia coli; settings: antibiotic without synergist, E. coli BW25113
Protocol: as §1, §2, §3, §4

SMILES	MIC of the peptide (MICpep) (E. coli BW25113 [2]; E. coli BW25113, LB) [µg/mL]	MICpep (E. coli BW25113 [3]) [µg/mL]	MIC (E. coli BW25113 [2]; Escherichia coli, antibiotic without synergist, E. coli BW25113, LB, read-out: MIC of erythromycin (MICery)) [µg/mL]	MIC of erythromycin (MICery) (E. coli BW25113 [2]; antibiotic without synergist, E. coli BW25113, LB)	MIC (E. coli BW25113 [4]; Escherichia coli, read-out: MIC of novobiocin (MICnovo)) [µg/mL]	MIC of novobiocin (MICnovo) (E. coli BW25113 [4]) [µg/mL]	Hemolysis [1]	MSCery (E. coli BW25113 [2]) [µg/mL]	MSCpeptide, minimum synergistic concentration (E. coli BW25113 [2]; E. coli BW25113, LB) [µg/mL]	MSCrif (E. coli BW25113 [3]) [µg/mL]	MSCpep (E. coli BW25113 [3]) [µg/mL]	FICi (E. coli BW25113 [2])	FICi (E. coli BW25113 [3]; with rifampicin vs E. coli BW25113, synergy defined as FICi ≤ 0.5)	FICi (E. coli BW25113 [3]; BW25113, 20 h)
CC[C@H](C)[C@H](NC(=O)[C@@H](NC(=O)[C@H](CCCCN)NC(=O)[C@H](CCC(N)=O)NC(=O)[C@@H](NC(=O)[C@H](Cc1c[nH]c2ccccc12)NC(=O)[C@H](CCCCN)NC(=O)[C@H](C)NC(=O)[C@H](CC(C)C)NC(=O)[C@H](CCCNC(=N)N)NC(=O)[C@H](Cc1ccccc1)NC(=O)[C@@H](N)C(C)C)[C@@H](C)CC)C(C)C)C(N)=O [compound 12] (H-VFRLAKWIQKVI-NH2)	25	25	–	–	–	–	30.2% and 30%	1.563	12.5	–	12.5	> 0.5	> 0.5	–
CC[C@H](C)[C@H](NC(=O)[C@@H](NC(=O)[C@H](CCCCN)NC(=O)[C@H](CCC(N)=O)NC(=O)[C@@H](NC(=O)[C@H](Cc1c[nH]c2ccccc12)NC(=O)[C@H](C)NC(=O)[C@H](CCCCN)NC(=O)[C@H](CC(C)C)NC(=O)[C@H](CCCNC(=N)N)NC(=O)[C@H](Cc1ccccc1)NC(=O)[C@@H](N)C(C)C)[C@@H](C)CC)C(C)C)C(N)=O [compound 13] (H-VFRLKAWIQKVI-NH2)	25	25	–	–	–	–	19.0%	3.125	12.5	2	6.25	> 0.5	–	0.5000
CC[C@H](C)[C@H](NC(=O)[C@@H](NC(=O)[C@H](CCCCN)NC(=O)[C@H](C)NC(=O)[C@@H](NC(=O)[C@H](Cc1c[nH]c2ccccc12)NC(=O)[C@H](CCCCN)NC(=O)[C@H](CCCCN)NC(=O)[C@H](CC(C)C)NC(=O)[C@H](CCCNC(=N)N)NC(=O)[C@H](Cc1ccccc1)NC(=O)[C@@H](N)C(C)C)[C@@H](C)CC)C(C)C)C(N)=O [compound 16] (H-VFRLKKWIAKVI-NH2)	25	25	–	–	–	–	3.5% and 4%	12.5	3.125	–	6.25	–	–	0.2656
CC[C@H]1OC(=O)[C@H](C)[C@@H](O[C@H]2C[C@@](C)(OC)[C@@H](O)[C@H](C)O2)[C@H](C)[C@@H](O[C@@H]2O[C@H](C)C[C@H](N(C)C)[C@H]2O)[C@](C)(O)C[C@@H](C)C(=O)[C@H](C)[C@@H](O)[C@]1(C)O [erythromycin, reference compound]	–	–	100 to 200	> 100 µg/mL and 200 µg/mL	–	–	–	–	–	–	–	–	–	–
CC[C@H](C)[C@H](NC(=O)[C@H](Cc1c[nH]c2ccccc12)NC(=O)[C@H](CCCCN)NC(=O)[C@H](CCCCN)NC(=O)[C@H](CC(C)C)NC(=O)[C@H](CCCNC(=N)N)NC(=O)[C@H](Cc1ccccc1)NC(=O)[C@@H](NC(=O)[C@@H](N)Cc1c[nH]cn1)C(C)C)C(=O)N[C@@H](CCC(N)=O)C(=O)N[C@@H](CCCCN)C(=O)N[C@H](C(=O)N[C@H](C(=O)N[C@@H](CC(=O)O)C(=O)N[C@@H](CCC(N)=O)C(=O)N[C@@H](Cc1ccccc1)C(=O)NCC(=O)N[C@@H](CCC(=O)O)C(=O)O)[C@@H](C)CC)C(C)C [peptide 2] (H-HVFRLKKWIQKVIDQFGE-OH)	200	200	–	–	–	–	–	25	50	0.5	50	0.3750	–	–
CC[C@H](C)[C@H](NC(=O)[C@H](Cc1c[nH]c2ccccc12)NC(=O)[C@H](CCCCN)NC(=O)[C@H](CCCCN)NC(=O)[C@H](CC(C)C)NC(=O)[C@H](CCCNC(=N)N)NC(=O)[C@H](Cc1ccccc1)NC(=O)[C@@H](NC(=O)[C@@H](N)Cc1cnc[nH]1)C(C)C)C(=O)N[C@@H](CCC(N)=O)C(=O)N[C@@H](CCCCN)C(=O)N[C@H](C(=O)N[C@H](C(=O)N[C@@H](CC(=O)O)C(=O)N[C@@H](CCC(N)=O)C(=O)N[C@@H](Cc1ccccc1)C(=O)NCC(=O)N[C@@H](CCC(=O)O)C(=O)O)[C@@H](C)CC)C(C)C [peptide 2] (H-HVFRLKKWIQKVIDQFGE-OH)	–	–	–	–	–	–	8.7% and 9%	–	–	–	–	–	–	–

The next lines start with results.

MIC of the peptide (MICpep) (E. coli BW25113 [2]; E. coli BW25113, LB) [µg/mL]	MICpep (E. coli BW25113 [3]) [µg/mL]	MIC (E. coli BW25113 [2]; Escherichia coli, antibiotic without synergist, E. coli BW25113, LB, read-out: MIC of erythromycin (MICery)) [µg/mL]	MIC of erythromycin (MICery) (E. coli BW25113 [2]; antibiotic without synergist, E. coli BW25113, LB)	MIC (E. coli BW25113 [4]; Escherichia coli, read-out: MIC of novobiocin (MICnovo)) [µg/mL]	MIC of novobiocin (MICnovo) (E. coli BW25113 [4]) [µg/mL]	SMILES	Hemolysis [1]	MSCery (E. coli BW25113 [2]) [µg/mL]	MSCpeptide, minimum synergistic concentration (E. coli BW25113 [2]; E. coli BW25113, LB) [µg/mL]	MSCrif (E. coli BW25113 [3]) [µg/mL]	MSCpep (E. coli BW25113 [3]) [µg/mL]	FICi (E. coli BW25113 [2])	FICi (E. coli BW25113 [3]; with rifampicin vs E. coli BW25113, synergy defined as FICi ≤ 0.5)	FICi (E. coli BW25113 [3]; BW25113, 20 h)
200	25	–	–	–	–	CC[C@H](C)[C@H](NC(=O)[C@@H](NC(=O)[C@H](CCCCN)NC(=O)[C@H](CCC(N)=O)NC(=O)[C@@H](NC(=O)[C@H](Cc1c[nH]c2ccccc12)NC(=O)[C@H](CCCCN)NC(=O)[C@H](CCCCN)NC(=O)[C@H](C)NC(=O)[C@H](CCCNC(=N)N)NC(=O)[C@H](Cc1ccccc1)NC(=O)[C@@H](N)C(C)C)[C@@H](C)CC)C(C)C)C(N)=O [compound 11] (H-VFRAKKWIQKVI-NH2)	1.1% and 1%	12.5	25	0.25	1.563	–	–	–
100	100	–	–	–	–	CC[C@H](C)[C@H](NC(=O)[C@@H](NC(=O)[C@H](CCCCN)NC(=O)[C@H](CCC(N)=O)NC(=O)[C@H](C)NC(=O)[C@H](Cc1c[nH]c2ccccc12)NC(=O)[C@H](CCCCN)NC(=O)[C@H](CCCCN)NC(=O)[C@H](CC(C)C)NC(=O)[C@H](CCCNC(=N)N)NC(=O)[C@H](Cc1ccccc1)NC(=O)[C@@H](N)C(C)C)C(C)C)C(N)=O [compound 15] (H-VFRLKKWAQKVI-NH2)	0.9% and 1%	12.5	12.5	0.25	6.25	–	–	0.0938
–	–	–	–	> 200	> 200	CO[C@@H]1[C@@H](OC(N)=O)[C@@H](O)[C@H](Oc2ccc3c(O)c(NC(=O)c4ccc(O)c(CC=C(C)C)c4)c(=O)oc3c2C)OC1(C)C [novobiocin, reference compound]	–	–	–	–	–	–	–	–
